Test results published in patent publication US4540697A, “Aminopropanol derivatives of 2-hydroxy-β-phenyl-propiophenones, pharmaceutical compositions and use” (priority 1984, dated 1985).
Where a name gives a salt, the structure may show the parent alone. Read-outs that look alike come from different tables or passages of the source.

How the values were obtained:
[1] = tested on: aconitine arrhythmia in rats; assay: Antiarrhythmic action on aconitine arrhythmia in rats; assay type: in vivo, rat (strain: Sprague Dawley); conditions: aconitine infused 60 minutes after substance; for ED50: Rattus norvegicus, 1 h, read-out: ED 50%: dose which causes a 50% extension in the period of aconitine infusion
Description: Moreover, the novel compounds were administered orally or intravenously to male rats (strain: Sprague Dawley, weight: 200-230 g) to determine the antiarrhythmic activity. 45 minutes later, the animals were anesthetized by intraperitoneal administration of 100 mg/kg of thiobutabarbital sodium. Aconitine served as the arrhythmogenic substance, and was infused intravenously at a dosage rate of 0.005 mg/kg/minute 60 minutes after administration of the substance. In untreated animals (n=52), arrhythmias appeared in the ECG after 2.74±0.07 minutes. These arrhythmias can be delayed by antiarrhythmic drugs, as a function of the dose.
The dose which extends the infusion period by 50% (ED 50%) was determined from the linear relationship between the logarithm of the dose (mg/kg) of the trial substance and the relative extension of the period of aconitine infusion (Δ%).
(§1) The known antiarrhythmic drug propafenone [2-(2-hydroxy-3-propylamino-propoxy)-3-phenyl-propiophenone hydrochloride]was used as the comparative substance.

[2] = tested on: isolated left atrium of male guineapigs; assay: Antiarrhythmic action on the isolated guineapig atrium (drop in maximum rhythmicity); design: species or system guineapig (strain: Pirbright white); conditions: Cavia porcellus, Tyrode's solution pH 7.4, 32° C., read-out: Maximum rhythmicity (ED 50%): concentration which causes a 50% drop in the maximum rhythmicity
Description: The antiarrhythmic activity of the compounds according to the invention was determined on the isolated left atrium of male guineapigs (strain: Pirbright white, weight: 350 to 450 g).
Atria suspended in an organ bath (volume: 125 ml) with carbogen-saturated Tyrode's solution (pH 7.4, 32° C.) were pre-loaded with 1.0 g and subjected to square-wave pulses having a base rhythm of 1 Hz and twice the excitation threshold (rheobase: 0.2-1.4 V, chronaxia: 0.3-0.5 msec).
The frequency (Hz) up to which contraction follows each stimulus (maximum rhythmicity, MR) was determined, by automatically and continuously increasing the frequency, as a criterion of the antiarrhythmic activity. The concentration which causes a drop in the maximum rhythmicity of 50% (EC 50%) was calculated from the linear relationship between the logarithm of the concentration (mg/l) and the relative drop in the maximum rhythmicity (%).
as §1

Molecule	ED50 ([1]; po, peroral administration) [mg/kg]	EC50 [2] [µg/mL]	also measured
2-[2'-Hydroxy-3'-(2-hydroxyethylamino)-propoxy]-β-(dimethylaminophenyl)-propiophenone hydrogen oxalate [Example 59]			ED 50%: dose which causes a 50% extension in the period of aconitine infusion ([1]; peroral administration): 21.5 mg/kg
CC(CCO)NCC(O)COc1ccccc1C(=O)CCc1ccccc1 (stereo not drawn) [Example 1, 2-[2'-Hydroxy-3'-(4-hydroxybut-2-ylamino)-propoxy]-β-phenyl-propiophenone hydrochloride]	15	1.9	
COCC(C)NCC(O)COc1ccccc1C(=O)CCc1ccccc1 (stereo not drawn) [Example 2, 2-[2'-Hydroxy-3'-(3-methoxyprop-2-ylamino)-propoxy]-β-phenyl-propiophenone hydrochloride]	46.4	0.874	
O=C(CCc1ccccc1)c1ccccc1OCC(O)CNC1CC1 (stereo not drawn) [Example 3, 2-(2'-Hydroxy-3'-cyclopropylamino-propoxy)-β-phenylpropiophenone hydrochloride]	38.2	1.51	
O=C(CCc1ccccc1)c1ccccc1OCC(O)CNC1CCCCC1 (stereo not drawn) [Example 4, 2-(2'-Hydroxy-3'-cyclohexylamino-propoxy)-β-phenylpropiophenone hydrochloride]	46.4		
C#CC(C)NCC(O)COc1ccccc1C(=O)CCc1ccccc1 (stereo not drawn) [Example 6, 2-[2'-Hydroxy-3'-(1-butyn-3-ylamino)-propoxy]-β-phenyl-propiophenone hydrochloride]		1.71	
C#CC(C)(C)NCC(O)COc1ccccc1C(=O)CCc1ccccc1 (stereo not drawn) [Example 7, 2-[2'-Hydroxy-3'-(3-methyl-1-butyn-3-ylamino)-propoxy]-β-phenyl-propiophenone hydrochloride]		1.66	
CC(C)(O)CCNCC(O)COc1ccccc1C(=O)CCc1ccccc1 (stereo not drawn) [Example 8, 2-[2'-Hydroxy-3'-(3-hydroxy-3-methyl-butylamino)-propoxy]-β-phenyl-propiophenone hydrochloride]	21		
COCCNCC(O)COc1ccccc1C(=O)CCc1ccccc1 (stereo not drawn) [Example 9, 2-[2'-Hydroxy-3'-(2-methoxyethylamino)-propoxy]-β-phenyl-propiophenone hydrochloride]	27	0.757	
CSCC(C)NCC(O)COc1ccccc1C(=O)CCc1ccccc1 (stereo not drawn) [Example 10, 2-[2'-Hydroxy-3'-(3-thiomethoxyprop-2-ylamino)-propoxy]-β-phenyl-propiophenone hydrochloride]	46.4	1.13	
CC(CNCC(O)COc1ccccc1C(=O)CCc1ccccc1)c1ccccc1 (stereo not drawn) [Example 12, 2-[2'-Hydroxy-3'-(2-phenylpropylamino)-propoxy]-β-phenyl-propiophenone hydrochloride]		1.25	
COc1ccc(CCNCC(O)COc2ccccc2C(=O)CCc2ccccc2)cc1OC (stereo not drawn) [Example 14, 2-[2'-Hydroxy-3'-(2-(3,4-dimethoxyphenyl)-ethylamino)propoxy]-β-phenyl-propiophenone hydrochloride]		2.17	
COc1ccc(CCN(C)CC(O)COc2ccccc2C(=O)CCc2ccccc2)cc1OC (stereo not drawn) [Example 15, 2-[2'-Hydroxy-3'-[N-methyl-N-(2-(3,4-dimethoxyphenyl)ethylamino)]-propoxy]-β-phenyl-propiophenone hydrochloride]		0.728	
CN(C)CCNCC(O)COc1ccccc1C(=O)CCc1ccccc1 (stereo not drawn) [Example 16, 2-[2'-Hydroxy-3'-(2-dimethylaminoethylamino)-propoxy]-β-phenyl-propiophenone bis-hydrochloride]	29		
CN(C)CC(O)COc1ccccc1C(=O)CCc1ccccc1 (stereo not drawn) [Example 18, 2-[2'-Hydroxy-3'-(N,N-dimethylamino)-propoxy]-β-phenyl-propiophenone hydrochloride]		1.3	
O=C(CCc1ccccc1)c1ccccc1OCC(O)CN1CCC(c2ccccc2)C1 (stereo not drawn) [Example 22, 2-[2'-Hydroxy-3'-(3-phenyl-pyrrolidino)-propoxy]-β-phenyl-propiophenone hydrochloride]		1.21	
CCCNCC(O)COc1ccccc1C(=O)CCc1ccccc1OC (stereo not drawn) [Example 29, 2-(2'-Hydroxy-3'-n-propylamino-propoxy)-β-(2-methoxyphenyl)-propiophenone hydrochloride]		1.71	

Molecule	ED50 ([1]; po, peroral administration) [mg/kg]	EC50 [2] [µg/mL]	also measured
CCCNCC(O)COc1ccccc1C(=O)CCc1ccc(OC)c(OC)c1 (stereo not drawn) [Example 36, 2-(2'-Hydroxy-3'-n-propylamino-propoxy)-β-(3,4-dimethoxyphenyl)-propiophenone hydrochloride]	6.92		
CCCNCC(O)COc1ccc(Cl)cc1C(=O)CCc1ccccc1 (stereo not drawn) [Example 37, 2-(2'-Hydroxy-3'-n-propylamino-propoxy)-5-chloro-β-phenyl-propiophenone hydrochloride]	46.4		
COCC(C)NCC(O)COc1ccc(Cl)cc1C(=O)CCc1ccccc1 (stereo not drawn) [Example 38, 2-[2'-Hydroxy-3'-(3-methoxy-prop-2-ylamino)-propoxy]-5-chloro-β-phenyl-propiophenone hydrochloride]	21.5		
O=C(CCc1ccccc1)c1cc(Cl)ccc1OCC(O)CN1CCCCC1 (stereo not drawn) [Example 40, 2-(2'-Hydroxy-3'-piperidino-propoxy)-5-chloro-β-phenyl-propiophenone]	46.4		
CCCN(CCC)CC(O)COc1ccc(C)cc1C(=O)CCc1ccc(Cl)cc1 (stereo not drawn) [Example 46, 2-(2'-Hydroxy-3'-di-n-propylamino-propoxy)-5-methyl-β-(4-chlorophenyl)-propiophenone hydrochloride]		0.778	
CCCN(CCC)CC(O)COc1ccc(Cl)cc1C(=O)CCc1ccc(F)cc1 (stereo not drawn) [Example 47, 2-(2'-Hydroxy-3'-di-n-propylamino-propoxy)-5-chloro-β-(p-fluorophenyl)-propiophenone hydrochloride]		1.45	
CCCNCC(O)COc1ccc(C)cc1C(=O)CCc1ccc(OC)c(OC)c1 (stereo not drawn) [Example 48, 2-(2'-Hydroxy-3'-n-propylamino-propoxy)-5-methyl-β-(3,4-dimethoxyphenyl)-propiophenone hydrochloride]		0.923	
CC(C)NCC(O)COc1ccccc1C(=O)CCc1ccc(N(C)C)cc1 (stereo not drawn) [Example 56, 2-(2'-Hydroxy-3'-isopropylamino-propoxy)-β-(4-dimethylaminophenyl)-propiophenone hydrochloride]	3.4		
CCCNCC(O)COc1ccccc1C(=O)CCc1ccc(N(CC)CC)cc1 (stereo not drawn) [Example 61, 2-(2'-Hydroxy-3'-n-propylamino-propoxy)-β-(4-diethylaminophenyl)-propiophenone hydrochloride]	1.9		
CCCNCC(O)COc1ccc(Cl)cc1C(=O)CCc1ccc(N(C)C)cc1 (stereo not drawn) [Example 62, 2-(2'-Hydroxy-3'-n-propylamino-propoxy)-5-chloro-β-(4-dimethylaminophenyl)-propiophenone hydrochloride]	21.5		
CCCNCC(O)COc1ccc(C)cc1C(=O)CCc1ccc(N(C)C)cc1 (stereo not drawn) [Example 63, 2-(2'-Hydroxy-3'-n-propylamino-propoxy)-5-methyl-β-(4-dimethylaminophenyl)-propiophenone hydrochloride]	3.03		
CC(C)N(CC(O)COc1ccccc1C(=O)CCc1ccc(N(C)C)cc1)C(C)C (stereo not drawn) [Example 64, 2-[2'-Hydroxy-3'-(N,N-diisopropylamino)-propoxy]-β-(4-dimethylaminophenyl)-propiophenone hydrochloride]		1.36	
CC(C)N(CC(O)COc1ccc(Cl)cc1C(=O)CCc1ccc(N(C)C)cc1)C(C)C (stereo not drawn) [Example 66, 2-[2'-Hydroxy-3'-(N,N-diisopropylamino)-propoxy]-5-chloro-β-(4-dimethylaminophenyl)-propiophenone hydrochloride]	21.5		
Cc1ccc(OCC(O)CN2CCN(C)CC2)c(C(=O)CCc2ccc(N(C)C)cc2)c1 (stereo not drawn) [Example 68, 2-[2'-Hydroxy-3'-(4-methyl-piperazin-1-yl)-propoxy]-5-methyl-β-(4-dimethylaminophenyl)-propiophenone hydrochloride]	46.4		
COCC(C)NCC(O)COc1ccc(C)cc1C(=O)CCc1ccc(N(C)C)cc1 (stereo not drawn) [Example 69, 2-[2'-Hydroxy-3'-(3-methoxy-prop-2-ylamino)-propoxy]-5-methyl-β-(4-dimethylaminophenyl)-propiophenone hydrochloride]	31.6		
CCCNCC(O)COc1ccc(O)cc1C(=O)CCc1ccccc1 (stereo not drawn) [Example 71, 2-(2'-Hydroxy-3'-n-propylamino-propoxy)-5-hydroxy-β-phenyl-propiophenone hydrochloride]			ED50 ([1]; iv, intravenous administration (footnote 2)): 0.51 mg/kg
CCCNCC(O)COc1ccccc1C(=O)CCc1ccccc1 (stereo not drawn) [Propafenone, 2-(2'-hydroxy-3'-n-propylamino-propoxy)-β-phenyl-propiophenone hydrochloride, reference compound]		2.02	
